Legend:
[1] = system: HCV; details: monotherapy; cited from earlier work
[2] = Determination of pharmacokinetic parameters in rats; format: in vivo; details: male, Wistar Han (Hanover-Wistar), Crl:WI(GLx/BRL/Han)IGS BR, rat, oral gavage, 10 mg/kg, plasma; for AUC(0-t): read-out: AUC0→24 (extrapolated)
Description: Intact male IGS Wistar Han Rats Crl:WI(GLx/BRL/Han)IGS BR (Hanover-Wistar) rats weighing 200-250 g were used. Groups of three rats were used for each dose level of an experimental compound. Animals were allowed normal access to chow and water throughout the experiment. The test substance was formulated as an aqueous suspension containing Captex355EP, Capmul MCM, EtOH, and propylene glycol (30:20:20:30) at a dose equivalent to 10 mg/kg of the I-6 and was administered orally by gavage. A blood sample (0.3 mL) was collected from the treated rats at, 0.25, 0.5, 1, 3, 5, and 8 h from a jugular cannula and at 24 h by cardiac puncture. Potassium oxalate/NaF were added to the samples which were stored on ice during sampling procedure. The samples were spun in a refrigerated centrifuge at […] as soon as possible and the plasma samples were stored in a −80° C. freezer until analysis. Aliquots of plasma (0.05 mL) were mixed with 0.1 mL of acetonitrile. Internal standard (0.05 mL in water) and 0.02 mL blank solvent were added. A set of calibration standards was prepared by mixing 0.05-mL aliquots of plasma from untreated rats with 0.1 mL acetonitrile, 0.02-mL aliquots of standard solution in methanol:water (1:1) and 0.05-mL aliquots of the internal standard in water. Each plasma sample and calibration standard was vortexed thoroughly and then centrifuged at 3000 rpm for 5 min to precipitate the protein. Supernatant (100 μL each) from centrifugation was transferred into a 96-well plate containing 200 μL of aqueous mobie phase for LC/MS/MS analysis.

[3] = system: HCV replicon cells (2209-23); assay: HCV replicon assay (Renilla luciferase reporter); format: cell-based, HCV genotype 1b replicon in human hepatoma Huh7 cells; details: Hepatitis C virus, 72 h; 2209-23 cells, three days incubation

Compound	patients with serum amino transferase levels reduced to normal [1] [%]	AUC [2] [ng·h/mL]	Cmax [2] [ng/mL]	AUC(0-t) [2] [ng·h/mL]	IC50 [3] [nM]
NC(=O)c1ncn([C@@H]2O[C@H](CO)[C@@H](O)[C@H]2O)n1 [ribavirin, 1-((2R,3R,4S,5R)-3,4-Dihydroxy-5-hydroxymethyl-tetrahydro-furan-2-yl)-1H-[1,2,4]triazole-3-carboxylic acid amide]	40	–	–	–	–
[2H]C([2H])([2H])C(c1cc(-c2cc(Cl)c[nH]c2=O)cc(/C=C/c2ccc(NS(C)(=O)=O)cc2)c1OC)(C([2H])([2H])[2H])C([2H])([2H])[2H] [Compound I-3, N-(4-{(E)-2-[3-[1,1-di(methyl-d3)ethyl-2,2,2-d3]-2-methoxy-5-(2-oxo-5-chloro-1,2-dihydro-pyridin-3-yl)-phenyl]-vinyl}-phenyl)-methanesulfonamide]	–	810	83.4	1000	–
[2H]C([2H])([2H])C(c1cc(-c2c[nH]c(=O)[nH]c2=O)cc(/C=C/c2ccc(NS(C)(=O)=O)cc2)c1OC)(C([2H])([2H])[2H])C([2H])([2H])[2H] [Compound I-4, N-(4-{(E)-2-[3-[1,1-di(methyl-d3)ethyl-2,2,2-d3]-5-(2,4-dioxo-1,2,3,4-tetrahydro-pyrimidin-5-yl)-2-methoxy-phenyl]-vinyl}-phenyl)-methanesulfonamide]	–	–	–	–	3.9
COc1c(/C=C/c2ccc(NS(C)(=O)=O)cc2)cc(-c2cc(Cl)c[nH]c2=O)cc1C(C)(C)C [I-3 (non-deuterated), reference compound]	–	338	55.8	365	–
[2H]C([2H])([2H])C(c1cc(-c2ccc[nH]c2=O)cc(/C=C/c2ccc(NS(C)(=O)=O)cc2)c1OC)(C([2H])([2H])[2H])C([2H])([2H])[2H] [Compound I-1, N-(4-{(E)-2-[3-[1,1-di(methyl-d3)ethyl-2,2,2-d3]-2-methoxy-5-(2-oxo-1,2-dihydro-pyridin-3-yl)-phenyl]-vinyl}-phenyl)-methanesulfonamide]	–	–	–	–	6.1

From US8383824B2, “Heterocyclic antiviral compounds” (Roche Palo Alto LLC, priority 2009, dated 2013)
